13 compounds from US4400517A, “Phosphoric esters derived from 1,2,4-triazole having an insecticidal, nematocidal and acaricidal action, and their preparation” (priority 1976, dated 1983) can be followed below.

Structures are written as SMILES.

Common to all, as to format: in vivo
One assay relates to Culex pipiens. Put plainly: Biological activity on Culex pipiens larvae (Diptera). The following applies: 24 h, Table 5, read-out: Activity (mortality class), Culex P. (larvae). As for the experimental part:
(4) Biological activity on Culex pipiens (Diptera)
Into glasses containing an aqueous dispersion of the products under examination (see Tables 4 and 5) there were introduced mosquito larvae of third and fourth age.
The mortality percentage of the larvae (glasses containing pure water=0) was determined after 24 hours from treatment.

For another assay, the system named is Tetranychus urticae. Nature of the assay: Biological activity on adults of Tetranychus urticae (Acari). The following applies: 24 h, Table 5, read-out: Activity (mortality class), Tetranychus U. (adults); for mortality at 0.1 %: 1%o; for mortality at 0.001 %: 0.01%o. As for the experimental part: (5) Biological activity on adults of Tetranychus urticae (Acari)
Discs of bean leaves were infested with adult acari and then sprinkled with an aqueous dispersion of the products under examination (see Tables 4 and 5).
The mortality percentage was determined after 24 hours from treatment (untreated leaf discs, mortality=0).

Another assay has as its system Pieris brassicae. Put plainly: Biological activity on Pieris brassicae (Lepidoptera). The following applies: 48 h, Table 5, read-out: Activity (mortality class), Pieris B.; for mortality at 0.1 %: 1%o; for mortality at 0.001 %: 0.01%o. As for the experimental part:
(2) Biological activity on Pieris brassicae (Lepidotera)
Cut-off cauliflower leaves were sprinkled with an aqueous dispersion of the products under examination (see TABLE 5).
After drying, the leaves were infested with 5-day old larvae. The percentage of mortality of the larvae (untreated leaves=0) was determined after 48 hours from treatment.

The test system of assay [1] is Leptinotarsa decemlineata. Nature of the assay: Biological activity on Leptinotarsa decemlineata (Coleoptera). The following applies: 48 h, Table 5, read-out: Activity (mortality class), Leptinotarsa D.; for mortality at 0.1 %: 1%o; for mortality at 0.005 %: 0.05%o. The protocol: (3) Biological activity on Leptinotarsa decemlineata (Coleoptera)
Small potato plants grown in pots were infested with 4-day old larvae, and were then sprinkled with an aqueous dispersion of the products under examination (see Tables 4 and 5).
The mortality percentage (untreated small plants=0) was determined after 48 hours from treatment.

In another assay the test system is Spodoptera littoralis. Nature of the assay: Biological activity on Spodoptera littoralis (Lepidoptera). The following applies: 48 h, Table 5, read-out: Activity (mortality class), Spodoptera L.; for mortality at 0.1 %: 1%o; for mortality at 0.005 %: 0.05%o. As for the experimental part: (7) Biological activity on Spodoptera littoralis (Lepidoptera)
Cut tobacco leaves were sprinkled with an aqueous dispersion of the products under examination (see Tables 4 and 5).
After drying, the leaves were infested with 5-day old larvae.
The percentage of mortality of the larvae was determined after 48 hours from treatment (untreated leaves, mortality=0).

In a further assay the test system is Blatta orientalis. Nature of the assay: Biological activity on Blatta orientalis (Ortoptera). The note with it: Blatta orientalis, 48 h, Table 5, read-out: Activity (mortality class), Blatta O.; for mortality at 0.01 g/m2: 0,01 g/m^2; for mortality at 1 g/m2: 1 g/m^2. The protocol:
(10) Biological activity on Blatta orientalis (Ortoptera)
The bottom and walls of glass crystallizers were treated uniformly with an acetonic solution of the products under examination (see Tables 4 and 5). After evaporation of the solvent, into each crystallizer were introduced ten 80-100 days old neanides. The crystallizers were then closed with a metal net cover. After 24 hours from the start of the treatment, the insects were transferred to similar untreated crystallizers, and there were appropriately nourished in conventional manner.
The percentage of mortality (untreated insects=0) was determined after 48 hours from the start of the treatment.

As to `CCOP(=S)(OCC)Oc1nc(C(=O)c2ccccc2)nn1-c1ccccc1` [M 7480], the mortality at 2 ppm in the assay with Culex pipiens lay in the range of 10 to 69%. In the assay with Tetranychus urticae, the mortality at 0.1 % came out at 100%.
Regarding `CCOP(=S)(OCC)Oc1nc(C(C)OC(=O)C=C(Cl)Cl)nn1-c1ccccc1` (stereo not shown) [M 8086], the mortality at 0.1 % (in the assay with Pieris brassicae; in assay [1]; in the assay with Tetranychus urticae; in the assay on Spodoptera littoralis) was 100% each time. The mortality at 2 ppm in the assay on Culex pipiens came out at 100%.
With `CCOP(=S)(OCC)Oc1nc(C=C(Cl)Cl)nn1C(C)C` [M 8450], the mortality at 0.001 % in the assay on Pieris brassicae and in the assay with Tetranychus urticae was 100% throughout. For the same compound, the mortality at 0.005 % is 10 to 69% in assay [1] and 100% in the assay on Spodoptera littoralis. The mortality at 0.02 ppm in the assay with Culex pipiens was determined as 100%. Also, the mortality at 0.01 g/m2 in the assay with Blatta orientalis fell in the range of 70 to 99%.
`CCCOP(=S)(OCCC)Oc1nc(C=C(Cl)Cl)nn1C(C)C` [M 8500]: in the assay on Pieris brassicae, the mortality at 0.001 % was in the range of 10 to 69%. Moreover, the mortality at 0.1 % with Pieris brassicae is 100%; in assay [1] it was 100%; with Tetranychus urticae it was 10 to 69%; in the assay with Spodoptera littoralis it was 10 to 69%. The mortality at 2 ppm in the assay on Culex pipiens lay within 70 to 99%. Further, in the assay on Blatta orientalis, the mortality at 1 g/m2 lay in the range of 0 to 9%.
Take `CCOC(=O)c1nc(OP(=S)(OCC)OCC)n(-c2ccccc2)n1` [M 8257]: the mortality at 0.1 % in the assay on Pieris brassicae lay within 70 to 99%; in assay [1], 10 to 69%; in the assay on Tetranychus urticae it was 70 to 99%. Further, the mortality at 2 ppm in the assay with Culex pipiens lay within 70 to 99%. The mortality at 1 g/m2 in the assay with Blatta orientalis lay in the range of 10 to 69%.
As for `CCOP(=S)(OCC)Oc1nc(C(C)=O)nn1-c1ccccc1` [M 7650], the mortality at 0.1 % in the assay with Pieris brassicae is 100%; in assay [1], 0 to 9%; in the assay with Tetranychus urticae, 100%; in the assay with Spodoptera littoralis, 70 to 99%. Also, in the assay on Culex pipiens, the mortality at 2 ppm came to 100%.
On to `CCOP(=S)(OCC)Oc1nc(C(C)OC(C)=O)nn1-c1ccccc1` (stereo not shown) [M 8084], for which the mortality at 0.1 % (in the assay with Pieris brassicae; in assay [1]; in the assay with Tetranychus urticae; in the assay on Spodoptera littoralis) was 100% throughout. The mortality at 2 ppm in the assay on Culex pipiens amounted to 100%. Moreover, the mortality at 0.001 % in the assay on Tetranychus urticae lay within 10 to 69%.
On to `CCOP(=S)(OCC)Oc1nc(C=C(Cl)Cl)nn1Cc1ccccc1` [M 8827], for which the mortality at 0.1 % in assay [1] was found to be 100%. Besides, in the assay on Culex pipiens, the mortality at 0.02 ppm was in the range of 10 to 69% and the mortality at 2 ppm came out at 100%. Further, in the assay with Tetranychus urticae, the mortality at 0.001 % fell in the range of 10 to 69% and the mortality at 0.1 % stood at 100%.
On to `CCOP(=S)(OC)Oc1nc(C=C(Cl)Cl)nn1C` (stereo not shown) [M 9750], for which, in assay [1], the mortality at 0.005 % was in the range of 10 to 69% and the mortality at 0.1 % amounted to 100%. Moreover, in the assay with Culex pipiens, the mortality at 0.02 ppm was determined as 100% and the mortality at 2 ppm came out at 100%. Moreover, in the assay on Tetranychus urticae, the mortality at 0.001 % came to 100% and the mortality at 0.1 % worked out at 100%. In the assay on Spodoptera littoralis, the mortality at 0.005 % came to 100% and the mortality at 0.1 % turned out to be 100%. Also, in the assay on Blatta orientalis, the mortality at 0.01 g/m2 was 100% and the mortality at 1 g/m2 was determined as 100%.
Take `CCOP(=S)(Oc1nc(C=C(Cl)Cl)nn1C)N(C)C` (stereo not shown) [M 9643]: the mortality at 0.1 % in the assay on Tetranychus urticae and in the assay on Spodoptera littoralis was 100% throughout.
As to `CCOP(=S)(OCC)Oc1nc(C(C)N(C)C)nn1-c1ccccc1` (stereo not shown) [M 8171], in the assay on Culex pipiens, the mortality at 2 ppm was 100%. Besides, the mortality at 0.1 % with Tetranychus urticae lay within 70 to 99%.
The matching figures for `CCOP(=S)(Oc1nc(C=C(Cl)Cl)nn1C)c1ccccc1` (stereo not shown) [M 9579]: 100% and 100%.
Turning to `C#CCn1nc(C=C(Cl)Cl)nc1OP(=S)(OCC)OCC` [M 8828], the mortality at 0.1 % in the assay with Pieris brassicae came to 100%. Further, the mortality at 0.1 % in assay [1] is 100%. For the same compound, in the assay with Culex pipiens, the mortality at 0.02 ppm was 10 to 69% and the mortality at 2 ppm was 100%. Further, in the assay with Tetranychus urticae, the mortality at 0.001 % is 70 to 99% and the mortality at 0.1 % was 100%. Moreover, the mortality at 1 g/m2 with Blatta orientalis was found to be 100%.

For orientation: mortality means the share of the test organisms that died.
